Experimental findings from patent US9499538B2, “Estrogen receptor modulators and uses thereof” (Seragon Pharmaceuticals, Inc., priority 2012, dated 2016) are described below.

One assay has as its system MCF-7 cells. The experiment in a line: Breast Cancer Cell Viability Assays (MCF-7, CellTiter-Glo). The format is cell-based. To be noted: 5 days' compound exposure; for IC50: Homo sapiens, MCF7, 120 h. In outline: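 MCF-7 cells (320/well, RPMI with 10% FBS) exposed for 5 days to an eleven-point semilog series, 0.3–0.000003 μM final. Viability read by CellTiter-Glo luminescence, expressed as background-corrected percent of untreated cells.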
For orientation: Cellular ATP, detected with luciferase, serves as a proxy for viable cell number.

The target in another assay is T1, ER-α in MCF-7 cells (Homo sapiens, UniProt P03372).
T1 construct: endogenous in cells; host or cells: MCF-7
T1 sequence (P03372 1-595): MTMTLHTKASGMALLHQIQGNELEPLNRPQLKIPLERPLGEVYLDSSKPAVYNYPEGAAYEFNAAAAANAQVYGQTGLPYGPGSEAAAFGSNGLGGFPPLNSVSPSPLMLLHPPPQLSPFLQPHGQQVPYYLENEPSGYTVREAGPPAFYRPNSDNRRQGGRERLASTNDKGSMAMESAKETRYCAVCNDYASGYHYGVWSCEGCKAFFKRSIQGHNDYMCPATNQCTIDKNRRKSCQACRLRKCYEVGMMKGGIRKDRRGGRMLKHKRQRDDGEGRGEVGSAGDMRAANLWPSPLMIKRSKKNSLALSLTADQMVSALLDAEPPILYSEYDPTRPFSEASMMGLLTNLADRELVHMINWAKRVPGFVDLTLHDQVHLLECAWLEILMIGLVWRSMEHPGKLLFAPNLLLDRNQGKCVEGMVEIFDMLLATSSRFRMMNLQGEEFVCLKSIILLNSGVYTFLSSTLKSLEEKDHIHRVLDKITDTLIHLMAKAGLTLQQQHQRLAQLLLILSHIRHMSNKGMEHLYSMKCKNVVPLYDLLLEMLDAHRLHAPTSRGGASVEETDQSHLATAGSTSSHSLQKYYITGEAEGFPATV
The assay can be described thus: Breast Cancer Cell ER-α In Cell Western Assay (SP1). The format is cell-based. To be noted: 4 or 24 hr post compound addition; for Emax: MCF7, SP1 antibody, read-out: ER-α In Cell Western Assay (SP1) Max Response; for DC50: SP1 antibody, read-out: ER-α In Cell Western Assay (SP1) IC50. The essentials: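 MCF-7 cells in charcoal-stripped FBS medium, treated with 11-point semilog dilutions (0.3–0.000003 μM final) for 4 or 24 h. Fixed cells immunostained with SP1 antibody (800 nm) and DRAQ5 DNA (700 nm); ER/DNA ratio expressed as % of untreated cells.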

Take `COc1ccc(/C(=C(\c2ccc(/C=C/c3noc(=O)[nH]3)cc2)c2ccc3[nH]nc(F)c3c2)C2CCC2)c(Cl)c1` [Example 276, 3-((E)-4-((E)-2-(2-Chloro-4-methoxyphenyl)-2-cyclobutyl-1-(3-fluoro-1H-indazol-5-yl)vinyl)styryl)-1,2,4-oxadiazol-5(4H)-one]: in the assay on MCF-7 cells, the “MCF7 Viability Assay Max Response” value is on record as “++ (++ = a single % value ≧ 40%)” and the IC50 was at most 100 nM. For the same molecule, at ER-α in MCF-7 cells, the Emax is at least 40% and the DC50 is at most 100 nM.

`O=c1[nH]c(/C=C/c2ccc(/C(=C(\c3ncc(C(F)(F)F)cc3Cl)C3CCC3)c3ccc4scnc4c3)cc2)no1` [Example 277, 3-((E)-4-((E)-1-(Benzo[d]thiazol-5-yl)-2-(3-chloro-5-(trifluoromethyl)pyridin-2-yl)-2-cyclobutylvinyl)styryl)-1,2,4-oxadiazol-5(4H)-one]: in the assay on MCF-7 cells, the “MCF7 Viability Assay Max Response” value is reported as “++ (++ = a single % value ≧ 40%)” and the IC50 is at most 100 nM. Moreover, at ER-α in MCF-7 cells, the Emax is at least 40% and the DC50 is at most 100 nM.

As to `COc1ccc(/C(=C(\c2ccc(/C=C/c3noc(=O)[nH]3)cc2)c2ccc3scnc3c2)C2CCC2)c(Cl)c1` [Example 278, 3-((E)-4-((E)-1-(Benzo[d]thiazol-5-yl)-2-(2-chloro-4-methoxyphenyl)-2-cyclobutylvinyl)styryl)-1,2,4-oxadiazol-5(4H)-one], in the assay with MCF-7 cells, the “MCF7 Viability Assay Max Response” value is “++ (++ = a single % value ≧ 40%)” and the IC50 was at most 100 nM. On ER-α in MCF-7 cells, the Emax is at least 40% and the DC50 is at most 100 nM.

Turning to `O=c1[nH]c(/C=C/c2ccc(/C(=C(\c3ncc(C(F)(F)F)cc3Cl)C3CCC3)c3ccc4[nH]nc(F)c4c3)cc2)no1` [Example 279, 3-((E)-4-((E)-2-(3-Chloro-5-(trifluoromethyl)pyridin-2-yl)-2-cyclobutyl-1-(3-fluoro-1H-indazol-5-yl)vinyl)styryl)-1,2,4-oxadiazol-5(4H)-one], in the assay with MCF-7 cells, the “MCF7 Viability Assay Max Response” value is given as “++ (++ = a single % value ≧ 40%)” and the 50% inhibitory concentration (IC50) is at most 100 nM. Besides, on ER-α in MCF-7 cells, the Emax is at least 40% and the DC50 is at most 100 nM.

As to `N#Cc1cc(C(F)(F)F)ccc1/C(=C(\c1ccc(/C=C/c2noc(=O)[nH]2)cc1)c1ccc2[nH]nc(F)c2c1)C1CCC1` [Example 280, 2-((E)-1-Cyclobutyl-2-(3-fluoro-1H-indazol-5-yl)-2-(4-((E)-2-(5-oxo-4,5-dihydro-1,2,4-oxadiazol-3-yl)vinyl)phenyl)vinyl)-5-(trifluoromethyl)benzonitrile], in the assay with MCF-7 cells, the “MCF7 Viability Assay Max Response” value is listed as “++ (++ = a single % value ≧ 40%)” and the 50% inhibitory concentration (IC50) was at most 100 nM. Further, at ER-α in MCF-7 cells, the Emax was at least 40% and the DC50 is at most 100 nM.

With `CS(=O)(=O)c1cc(Cl)ccc1/C(=C(\c1ccc(/C=C/C(=O)O)cc1)c1ccc2scnc2c1)C1CCC1` [Example 281, (E)-3-(4-((E)-1-(Benzo[d]thiazol-5-yl)-2-(4-chloro-2-(methylsulfonyl)phenyl)-2-cyclobutylvinyl)phenyl)acrylic acid], in the assay on MCF-7 cells, the “MCF7 Viability Assay Max Response” value is listed as “++ (++ = a single % value ≧ 40%)” and the IC50 was at most 100 nM. Besides, at ER-α in MCF-7 cells, the Emax is at least 40% and the DC50 was at most 100 nM.

On to `CS(=O)(=O)c1cc(Cl)ccc1/C(=C(\c1ccc(/C=C/C(=O)O)cc1)c1ccc2[nH]nc(F)c2c1)C1CCC1` [Example 282, (E)-3-(4-((E)-2-(4-Chloro-2-(methylsulfonyl)phenyl)-2-cyclobutyl-1-(3-fluoro-1H-indazol-5-yl)vinyl)phenyl)acrylic acid], for which, in the assay with MCF-7 cells, the “MCF7 Viability Assay Max Response” value is “++ (++ = a single % value ≧ 40%)” and the IC50 was at most 100 nM. At ER-α in MCF-7 cells, the Emax is at least 40% and the DC50 was at most 100 nM.

In the case of `O=c1[nH]nc(/C=C/c2ccc(/C(=C(\c3ccccc3)C3CCC3)c3ccc4[nH]nc(F)c4c3)cc2)[nH]1` [Example 283, 3-((E)-4-((E)-2-Cyclobutyl-1-(3-fluoro-1H-indazol-5-yl)-2-phenylvinyl)styryl)-1H-1,2,4-triazol-5(4H)-one], in the assay on MCF-7 cells, the “MCF7 Viability Assay Max Response” value is on record as “++ (++ = a single % value ≧ 40%)” and the IC50 is at most 100 nM. Further, on ER-α in MCF-7 cells, the Emax was at least 40% and the DC50 was at most 100 nM.

With `Fc1n[nH]c2ccc(/C(=C(/c3ccccc3)C3CCC3)c3ccc(/C=C/c4nnc[nH]4)cc3)cc12` [Example 284, 5-((E)-1-(4-((E)-2-(4H-1,2,4-Triazol-3-yl)vinyl)phenyl)-2-cyclobutyl-2-phenylvinyl)-3-fluoro-1H-indazole], in the assay on MCF-7 cells, the “MCF7 Viability Assay Max Response” value is given as “++ (++ = a single % value ≧ 40%)” and the IC50 was at most 100 nM. On ER-α in MCF-7 cells, the Emax was at least 40% and the DC50 is at most 100 nM.

Consider `Fc1n[nH]c2ccc(/C(=C(/c3ccccc3)C3CCC3)c3ccc(/C=C/c4ncc[nH]4)cc3)cc12` [Example 285, 5-((E)-1-(4-((E)-2-(1H-Imidazol-2-yl)vinyl)phenyl)-2-cyclobutyl-2-phenylvinyl)-3-fluoro-1H-indazole], for which, in the assay on MCF-7 cells, the “MCF7 Viability Assay Max Response” value is listed as “++ (++ = a single % value ≧ 40%)” and the IC50 was at most 100 nM. At ER-α in MCF-7 cells, the Emax was at least 40% and the DC50 is at most 100 nM.

`Fc1n[nH]c2ccc(/C(=C(/c3ccccc3)C3CCC3)c3ccc(/C=C/c4cnn[nH]4)cc3)cc12` [Example 286, 5-((E)-1-(4-((E)-2-(1H-1,2,3-Triazol-5-yl)vinyl)phenyl)-2-cyclobutyl-2-phenylvinyl)-3-fluoro-1H-indazole]: in the assay with MCF-7 cells, the “MCF7 Viability Assay Max Response” value is “++ (++ = a single % value ≧ 40%)” and the IC50 is at most 100 nM. In addition, on ER-α in MCF-7 cells, the Emax was at least 40% and the DC50 was at most 100 nM.

As usually defined, the IC50 is the point on the concentration scale where inhibition reaches its midpoint.
